Consider two molecules from US10475593B2, “Use of halogen derivatives of histidine as electrolytic salt in a photovoltaic dye cell” (CENTRE NATIONAL DE LA RECHERCHE SCIENTIFIQUE, priority 2014, dated 2019).

A short description of the data set: Thermogravimetric analysis under air. Format: physicochemical. As for the experimental part:
A thermogravimetric analysis under air of the compound 3a was also carried out after storage exposed to the air for 3 weeks.
By way of comparison, a thermogravimetric analysis of an imidazolium iodide not coming within the invention, namely 1,3-dimethylimidazolium iodide (DMII), was also carried out.
The results obtained are given in the appended FIGS. 1 and 2. FIG. 1 gives the results of the calorimetric analysis of the compound 3a. In this figure, the heat flux (in W/g) is a function of the temperature (in ° C.). FIG. 2 gives the results of the thermogravimetric analysis for the compound 3a (continuous line) in comparison with the DMII (noncontinuous line).
In comparison, DMII allows a loss in weight of the order of 30% originating from the water captured as a result of its hygroscopicity.

As for `COC(=O)CCc1cn(C)c[n+]1C.[I-]` [Compound 3a, 4-(3-methoxy-3-oxopropyl)-1,3-dimethyl-1H-imidazol-3-ium Iodide], the hygroscopicity result (after storage exposed to the air for 3 weeks) is recorded as “does not exhibit any hygroscopicity nature”. For the same molecule, where the note is “thermogravimetric analysis under air”, the “temperature up to which the compound is stable” value worked out at 300 °C.

In the case of `Cn1cc[n+](C)c1.[I-]` [DMII, 1,3-Dimethylimidazolium iodide, reference compound], the “loss in weight originating from captured water (hygroscopicity)” value (thermogravimetric analysis) is listed as about 30%.
